Experimental data published in patent US4994554A, “Probursin” (Immunobiology Research Institute, Inc., priority 1988, dated 1991).
Where no end group is shown, it is not given here.

What was measured:
[1] = test system: SV40 transformed hamster beta cells (HIT); assay: Growth hormone inhibition: GRF-stimulated 3H inositol phosphate (IP) release and growth hormone (GH) accumulation, RIA of supernatant; format: cell-based; settings: for [GH] / [IP]: 15 min
Description: An assay was performed to study the effect of probursin in combination with growth hormone releasing factor (GRF) as this combination effects the release of ^3 H inositol phosphate (IP) and growth hormone (GH) accummulation in SV40 transformed hamster beta cells (HIT). The experiment was performed according to the procedures described in M. J. Berridge et al, cited above.
Briefly described, commercially available HIT cells were incubated at 37° C. for 1 hour in metabolic RPMI medium with 5% fetal calf serum (FCS). GRF in varying concentrations indicated in the Table below was added to the cell culture and incubated for 15 minutes at 37° C. The cells were then centrifuged at 800 rpm and the supernatant collected. Levels of GH and IP were measured in the supernatant by radioimmunoassay (RIA) also according to Berridge et al. These measurements formed the GRF control.
The same procedure was followed without the addition of GRF and is indicated below as the control.
Similarly, to indicate the effect of probursin on GRF, the procedure above was followed except that GRF and probursin at the appropriate concentrations indicated in the Table below were added to the cells together and followed by 15 minutes incubation and centrifugation. When the supernatant was measured by RIA as described above, the resulting concentrations of IP and GH were determined as illustrated in the Table below.

MOPC-315 cells = assay: Cyclic GMP assay in MOPC-315 cells; format: cell-based; settings: 0 to 1000 micrograms/ml, FIG. 5B
Anti-bursin antiserum = assay: ELISA blocking of anti-bursin antiserum binding by absorbants; parameters: species or system rabbit; settings: FIG. 3B
Description: Antisera were tested for activity in the following ELISA protocol. The assays were performed according to the method of Voller et al, Bull. WHO, 53:55 (1976). Briefly, polyvinyl chloride microtiter plates (Fisher Scientific, Springfield, N.J.) were coated overnight with 100 ul/well of 10 ug/ml solution of tetramer of probursin in 0.1 M phosphate buffer, pH 7.2. Plates were washed and were postcoated with 150 ul/well of 0.5 percent bovine serum albumin in PBS, pH 7.2, for one hour at room temperature. Plates were washed, dried at 37° C. for 6-24 hours and sealed in dessicated packages and stored at 4° C.
Antisera to be tested were diluted in PBS containing 0.05 percent Tween 20. One hundred ul of the diluted sera were added per well in triplicates. Normal rabbit or mouse serum was used as the negative control. After 60 minutes of incubation at room temperature the plates were washed three times with PBS Tween-20. One hundred ul of alkaline phosphatase conjugated to affinity-purified goat anti-rabbit IgG (heavy and light chains) diluted 1:2000 in PBS Tween-20 were added to each well. The plates were incubated at room temperature for 60 minutes. […] After 30 minutes of incubation at room temperature the reaction was terminated with the addition of 50 ul/well of 5 N NaOH and the optical density was read at 410 nm. […]

Daudi cells = assay: Cyclic GMP assay in Daudi cells; format: cell-based; settings: 0 to 1000 micrograms/ml, FIG. 5A
Description: Daudi cells were freshly seeded and grown for 2 days with harvesting as described in T. Audhya et al, Arch. Biochem Biophys., 234:167-177 (1984). The cells were washed 3 times in PBS and resuspended in RPMI 1640 at a concentration of 1.0×10^7 cells/ml and were allowed to equilibrate at 37° C. for 30 minutes before the addition of the test compounds (25 ul) of bursin and probursin, and control peptides porcine insulin (A), equine myoglobin (B) and bovine growth hormone (C). The incubation was allowed to proceed in a shaking water bath for 4-5 minutes and was then terminated by addition of 1 ml ice-cold TCA (10%).
The cells in TCA were homogenized and sonicated to release cyclic nucleotide. The suspension was centrifuged at 3000×g for 20 minutes at 4° C. The resulting precipitate was dissolved in 0.1 N NaOH to determine the protein content. TCA was removed from the supernatant fraction by extracting 4 times with 5 ml of water-saturated diethyl ether. […]
Dose-response curves from 0 to 1000 micrograms/ml were evaluated for bursin, probursin and controls. […] A threshold activity was determined for each peptide tested. […] Test results were considered positive if the level of cyclic GMP was greater than 1.52 times (2 standard deviations) that determined for the parallel negative control.

[2] = GRF 0.1 nM alone, HIT cell supernatant
[3] = GRF 1 nM alone, HIT cell supernatant
[4] = GRF 10 nM alone, HIT cell supernatant
[5] = GRF (0.1 nM) + Probursin (.1 μM)
[6] = GRF (1 nM) + Probursin (0.1 μM)
[7] = GRF (1 nM) + Probursin (1.0 μM)
[8] = GRF (10 nM) + Probursin (10.0 μM)

blocking of anti-bursin antiserum binding (Anti-bursin antiserum) | Substance | [GH] [1, 2] | [IP] [1, 2] | [GH] [1, 3] | [IP] [1, 3] | [GH] [1, 4] | [IP] [1, 4] | induction of intracellular cyclic GMP (dose-response) (MOPC-315 cells) | [GH] [1, 5] | [IP] [1, 5] | [GH] [1, 6] | [IP] [1, 6] | [GH] [1, 7] | [IP] [1, 7] | [GH] [1, 8] | [IP] [1, 8] | effect on growth hormone releasing factor action (IP and GH) ([1]; HIT cells, summary in words) | release of growth hormone ([1]; summary in words, refers to Example 6) | induction of intracellular cyclic GMP (dose-response) (Daudi cells)
 | GRF: growth hormone releasing factor, stimulus in HIT cell assay (YADAIFTNSYRKVLGQLSARKLLQDIMSRQQGESNQERGARARL; ends and bridges not checked; UniProt P01286 32-75, looked up) [reference compound] | 162 ± 4 n/ml | 489 ± 19 cpm | 648 ± 26 n/ml | 2810 ± 290 cpm | 1162 ± 84 n/ml | 8962 ± 821 cpm |  |  |  |  |  |  |  |  |  |  |  | 
blocked | FFWKTKPRKHGGRR [Probursin, Phe-Phe-Trp-Lys-Thr-Lys-Pro-Arg-Lys-His-Gly-Gly-Arg-Arg] |  |  |  |  |  |  | active | 35 ± 4 n/ml | 239 ± 13 cpm | 480 ± 31 n/ml | 1911 ± 310 cpm | 77 ± 6 n/ml | 444 ± 22 cpm | 29 ± 3 n/ml | 382 ± 16 cpm | marked suppression | inhibit | active
